Patent US6004967A, “Psoriasis treatment with quinazoline compounds” (priority 1997, dated 1999)

What was measured:
[1] = test system: NIH 3T3 C7 cells engineered to express EGF-R (3T3-EGFR); experiment: 3T3 cell growth assay, EGF-R C7 cells (3T3-EGFR); format: cell-based; details: Mus musculus, NIH3T3, 96 h, read-out: 3T3-EGFR IC50
Method: The efficacy of the above identified compounds in inhibiting or reducing EGF-R stimulated proliferation is measured by the 3T3 cell growth assay. The 3T3 growth assay was carried out as follows:
EGF-RC7 (NIH 3T3 C7 cells engineered to express EGF-R) and NIH 3T3C7 cells (as the control) were used for this assay. NIH3T3C7 cells were seeded at 2500 cells/well, […] in 10% CS+2 mM Glutamine/DMEM, in a 96 well plate; EGF-RC7 cells were seeded at 6000 cells/well, 100 μl/well in 2% FBS+2 mM Glutamine/DMEM, in a 96 well plate. Cells were incubated at 37° C., 5% CO2 overnight to allow for cell attachment to the plate.
A quinazoline compound was added to the cells at day 2. The compound was prepared in the appropriate growth medium (10% CS+2 mM glutamine in DMEM for NIH3T3C7 cells; 2% FBS+2 mM Glutamine in DMEM for EGF-RC7 cells) in a 96 well plate, and serially diluted. A total of 100 μl/well medium of the diluted compounds was added into the cells. The total volume of each well was 200 μl.
After the cells were treated with the compound for 4 days, the cells were washed with PBS and fixed with 200 μl/well ice-cold […] for one hour at 0-5° C.
Remove TCA and rinse wells 5 times with deionized water. Dry plates upside down with paper towels. Stain cells with 0.4% SRB at 100 μl/well for 10 minutes.
Pour off SRB and rinse plate 5 times with 1% acetic acid. Dry plate completely.
Solubilize the dye with 10 mM Tris-base at 100 μl/well for 10 minutes on a shaker.
Read the plate at dual wavelengths at 570 nm and 630 nm on Dynatech Elisa plate reader.

[2] = Plasma concentration after single IP dose; format: in vivo; details: mouse
Method: **Single dose (50 mg/kg), IP, in BALB/c, nu/nu, female mice.

IR = molecular target: T1, IR (Homo sapiens, UniProt P06213); experiment: Insulin-stimulated receptor phosphorylation ELISA, 3T3-IR; format: cell-based
T1 construct: expressed in transfected cells; host or cells: NIH3T3 mouse fibroblasts, retroviral vector (3T3-IR)
T1 sequence (P06213 763-1382 limits assumed): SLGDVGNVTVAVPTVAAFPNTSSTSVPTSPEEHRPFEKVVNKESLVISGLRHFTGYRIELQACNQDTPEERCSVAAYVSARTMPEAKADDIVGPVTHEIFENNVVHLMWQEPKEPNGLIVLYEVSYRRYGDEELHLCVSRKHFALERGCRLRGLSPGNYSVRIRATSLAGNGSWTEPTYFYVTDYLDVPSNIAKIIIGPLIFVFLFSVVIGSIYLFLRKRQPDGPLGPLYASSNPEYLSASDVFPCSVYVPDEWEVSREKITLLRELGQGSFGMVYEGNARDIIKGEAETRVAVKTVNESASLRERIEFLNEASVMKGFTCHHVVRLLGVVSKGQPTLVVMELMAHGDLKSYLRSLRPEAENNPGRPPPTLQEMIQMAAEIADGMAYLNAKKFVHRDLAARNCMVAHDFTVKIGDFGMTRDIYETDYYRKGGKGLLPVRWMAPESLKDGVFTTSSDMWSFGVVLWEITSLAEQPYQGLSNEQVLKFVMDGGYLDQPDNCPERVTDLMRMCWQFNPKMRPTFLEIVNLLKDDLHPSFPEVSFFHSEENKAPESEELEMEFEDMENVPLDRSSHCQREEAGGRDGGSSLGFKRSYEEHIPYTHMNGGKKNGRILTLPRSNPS
T1 sequence (P06213 28-758 partner limits assumed): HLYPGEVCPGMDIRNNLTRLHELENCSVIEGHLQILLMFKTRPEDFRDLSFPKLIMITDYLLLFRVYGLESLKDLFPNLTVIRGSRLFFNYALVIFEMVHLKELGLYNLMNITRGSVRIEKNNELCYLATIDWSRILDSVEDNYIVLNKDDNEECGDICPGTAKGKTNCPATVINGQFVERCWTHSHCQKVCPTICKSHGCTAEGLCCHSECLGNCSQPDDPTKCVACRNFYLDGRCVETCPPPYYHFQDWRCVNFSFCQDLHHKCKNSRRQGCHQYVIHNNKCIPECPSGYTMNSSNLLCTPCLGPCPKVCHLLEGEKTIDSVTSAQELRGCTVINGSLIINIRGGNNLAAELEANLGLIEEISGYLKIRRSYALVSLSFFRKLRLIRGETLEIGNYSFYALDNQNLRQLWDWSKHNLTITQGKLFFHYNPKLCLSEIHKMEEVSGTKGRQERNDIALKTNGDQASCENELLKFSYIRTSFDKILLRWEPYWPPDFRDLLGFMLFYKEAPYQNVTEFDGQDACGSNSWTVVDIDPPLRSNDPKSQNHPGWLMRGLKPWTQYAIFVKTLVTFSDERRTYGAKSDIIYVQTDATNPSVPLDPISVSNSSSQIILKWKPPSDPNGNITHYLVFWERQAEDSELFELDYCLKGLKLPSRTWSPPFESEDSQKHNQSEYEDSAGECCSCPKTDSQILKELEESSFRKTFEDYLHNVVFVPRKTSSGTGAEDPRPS
Description: Cells and Cell Culture. All tumor cell lines were obtained from the American Type Culture Collection (Rockville, Md.), unless otherwise specified. NIH3T3 mouse fibroblasts overexpressing the EGF receptor, IGF-1 receptor, insulin receptor, PDGF-b receptor, or a chimera of the EGF receptor extracellular domain fused to the Her-2 cytoplasmic domain were engineered using retroviral vectors. These cells will be referred to as 3T3-EGFR, 3T3-IGF1R, 3T3-IR, 3T3-PDGF-bR, and 3T3-EGFR/Her-2, respectively. All cell culture media and supplements were purchased from Gibco Life Technologies (Grand Island, N.Y.) unless otherwise specified. […] Cell lines were maintained under standard conditions in culture media recommended by the ATCC, unless otherwise specified. 3T3-EGFR, 3T3-PDGF-bR, and 3T3-EGFR/Her-2 cells were maintained in DMEM containing 10% calf serum (CS) and 2 mM GLN. 3T3-IGF1R and 3T3-IR cells were maintained in DMEM containing 10% FBS and 2 mM GLN. Keratinocytes were obtained from small biopsy specimens of split-thicknessskin from patients with psoriasis and from healthy control donors.
In vitro functional studies. […] For analysis of DNA replication (measured as incorporation of BrdU) and cell cycle progression, 3T3-EGFR and 3T3-PDGF-bR cell lines were used. […]
Receptor phosphorylation was measured by ELISA. […]

COc1cc2ncnc(Nc3cccc(Br)c3)c2cc1OC [A1, 4-(3-Bromophenylamino)-6,7-dimethoxyquinazoline]
IC50 [1]: 75 nM
plasma half-life (in words) ([2]; in vivo): short plasma half-life
concentration at 5 min ([2]; plasma, single dose 50 mg/kg IP, BALB/c nu/nu female mice, 5 min): 17900 ± 4300 ng/mL
concentration at […] ([2]; plasma, single dose 50 mg/kg IP, BALB/c nu/nu female mice, 15 min): 6300 ± 3700 ng/mL
concentration at 1 h ([2]; plasma, single dose 50 mg/kg IP, BALB/c nu/nu female mice, 60 min): 2000 ± 900 ng/mL
inhibition of receptor phosphorylation, IR (IR; concentrations up to 100 μM): not inhibited
IC50 (IR; ligand Insulin, 2 hr pretreatment): > 100000 nM
